Holding throughout (assay type): cell-based
One experiment deals with T1, AR (Homo sapiens, UniProt P10275).
T1 construct: Degradation of AR; Cellular potency; host or cells: VCaP cells
T1 sequence (P10275 1-920): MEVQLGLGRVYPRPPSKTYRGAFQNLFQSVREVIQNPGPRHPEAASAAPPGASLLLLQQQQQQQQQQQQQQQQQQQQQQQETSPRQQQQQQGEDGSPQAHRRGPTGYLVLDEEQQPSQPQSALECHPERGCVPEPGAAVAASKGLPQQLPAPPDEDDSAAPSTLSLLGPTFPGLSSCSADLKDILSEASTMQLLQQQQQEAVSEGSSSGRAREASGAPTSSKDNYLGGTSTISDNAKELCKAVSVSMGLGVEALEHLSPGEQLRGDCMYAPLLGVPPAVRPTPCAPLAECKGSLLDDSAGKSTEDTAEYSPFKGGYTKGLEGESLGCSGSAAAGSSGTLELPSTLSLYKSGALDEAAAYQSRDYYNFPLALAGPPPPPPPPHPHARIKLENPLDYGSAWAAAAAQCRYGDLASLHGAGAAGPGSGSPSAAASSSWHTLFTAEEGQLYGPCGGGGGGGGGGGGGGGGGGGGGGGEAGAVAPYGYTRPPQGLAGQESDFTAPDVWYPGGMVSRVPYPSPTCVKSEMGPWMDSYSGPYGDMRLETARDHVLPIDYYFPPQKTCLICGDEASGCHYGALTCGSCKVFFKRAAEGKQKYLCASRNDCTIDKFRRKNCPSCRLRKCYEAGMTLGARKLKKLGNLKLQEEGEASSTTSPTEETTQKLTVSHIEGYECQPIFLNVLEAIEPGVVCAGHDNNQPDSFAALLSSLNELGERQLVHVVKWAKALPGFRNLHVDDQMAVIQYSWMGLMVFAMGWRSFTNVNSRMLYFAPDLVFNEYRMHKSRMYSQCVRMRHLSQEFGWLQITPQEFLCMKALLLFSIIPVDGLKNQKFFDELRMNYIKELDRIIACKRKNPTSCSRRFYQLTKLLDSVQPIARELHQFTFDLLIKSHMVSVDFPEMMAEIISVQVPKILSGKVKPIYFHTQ
Kind of experiment: Degradation of AR in VCaP cells. The note with it: VCaP cells; for Dmax: VCaP. Here is the method:
(§1) Biological Assays. LNCaP and VCaP cells used were purchased from American Type Culture Collection (ATCC). LNCaP were grown in RPMI 1640 (Invitrogen) and VCaP cells were grown in DMEM with Glutamax (Invitrogen). All of the cells were supplemented with 10% fetal bovine serum (Invitrogen) at 37° C. in a humidified 5% CO2 incubator.

For the next experiment, the system named is LNCaP cells. Kind of experiment: Cellular potency (IC50) in LNCaP cells. The protocol:
as §1

The next experiment concerns VCaP cells. Kind of experiment: Cellular potency (IC50) in VCaP cells. The protocol:
as §1

pIC50: −log10 of the molar value. Read-outs that look alike come from different tables or passages of the source.

Consider 12 compounds from patent publication US20240190874A1, “SMALL MOLECULE DEGRADERS OF ANDROGEN RECEPTOR” (THE REGENTS OF THE UNIVERSITY OF MICHIGAN, priority 2021, published 2024).

For orientation: DC50 means the midpoint of the concentration-degradation curve. A higher DC50 goes with degradation only at high concentration. A word on the Dmax: it is the largest share of the target that was removed. Read a low Dmax as a partial loss of target. As a reminder, the pIC50 is the negative decadic logarithm of the IC50, by convention in mol/L. High values mean a low IC50, low ones a high IC50. On AR, `C[C@H]1CC2(CCN(c3ccc(C4CCN(CC5CN(c6ccc7c(c6)C(=O)N(C6CCC(=O)NC6=O)C7=O)C5)CC4)nc3)CC2)CN1c1ccc(C#N)c(Cl)c1` (some centres unmarked) [compound 45] yielded a DC50 of less than 1 nM and a Dmax of more than 90%. Also, in the experiment with LNCaP cells (Homo sapiens, LNCaP), the pIC50 is more than 8.00. In addition, in the experiment on VCaP cells (Homo sapiens, VCaP), the pIC50 was more than 8.00.
For the compound `C[C@H]1CC2(CCN(c3ccc(C(=O)N4CCC(N5CCOc6cc7c(cc6C5)C(=O)N(C5CCC(=O)NC5=O)C7=O)CC4)cc3)CC2)CN1c1ccc(C#N)c(Cl)c1` (some centres unmarked) [compound 194], the 50% degradation concentration (DC50) at AR is less than 10 nM. Besides, the pIC50 with LNCaP cells (Homo sapiens, LNCaP) is more than 8.00; in the experiment with VCaP cells (Homo sapiens, VCaP) it was more than 7.00.
At AR, `C[C@H]1CC2(CCN(c3ccc(C(=O)N4CCN(C5CN(c6ccc7c(c6)C(=O)N(C6CCC(=O)NC6=O)C7=O)C5)CC4)s3)CC2)CN1c1ccc(C#N)c(Cl)c1` (some centres unmarked) [compound 135] came in with a DC50 of less than 10 nM and a Dmax of 70 to 90%. The same compound had a negative-log IC50 (pIC50) with LNCaP cells (Homo sapiens, LNCaP) of more than 7.00. In the experiment with VCaP cells (Homo sapiens, VCaP), this compound gave a negative logarithm of the IC50 (pIC50) of more than 7.00.
Regarding `C[C@H]1CC2(CCN(c3ccc(OC4CCN(C5CCN(c6ccc7c(c6)C(=O)N(C6CCC(=O)NC6=O)C7=O)CC5)CC4)cc3)CC2)CN1c1ccc(C#N)c(Cl)c1` (some centres unmarked) [compound 58], at AR, the DC50 was less than 10 nM and the Dmax was more than 90%. For the same compound, the pIC50 with LNCaP cells (Homo sapiens, LNCaP) is more than 7.00. In the experiment with VCaP cells (Homo sapiens, VCaP), the negative logarithm of the IC50 (pIC50) was more than 7.00.
In the case of `C[C@H]1CC2(CCN(c3ccc(N4CCC(CN5Cc6cc7c(cc6C5)C(=O)N(C5CCC(=O)NC5=O)C7=O)CC4)nn3)CC2)CN1c1ccc(C#N)c(Cl)c1` (some centres unmarked) [compound 56], the half-maximal degradation concentration (DC50) on AR was less than 10 nM. This compound also gave a Dmax on AR of more than 90%. Besides, the pIC50 in the experiment on LNCaP cells (Homo sapiens, LNCaP) was more than 7.00; in the experiment on VCaP cells (Homo sapiens, VCaP), more than 7.00.
On AR, `C[C@H]1CC2(CCN(c3ccc(N4CCN(CC5CCN(c6ccc7c(c6)C(=O)N(C6CCC(=O)NC6=O)C7=O)CC5)CC4)nn3)CC2)CN1c1ccc(C#N)c(Cl)c1` (some centres unmarked) [compound 48] registered a 50% degradation concentration (DC50) of less than 1 nM. The compound also showed a Dmax on AR of more than 90%. The negative logarithm of the IC50 (pIC50) with LNCaP cells (Homo sapiens, LNCaP) was more than 8.00; in the experiment with VCaP cells (Homo sapiens, VCaP), more than 8.00.
Take `C[C@H]1CC2(CCN(c3ccc(CN4CCN(C5CN(c6ccc7c(c6)C(=O)N(C6CCC(=O)NC6=O)C7=O)C5)CC4)c(F)c3)CC2)CN1c1ccc(C#N)c(Cl)c1` (some centres unmarked) [compound 8]: on AR, the DC50 was less than 10 nM and the maximal degradation (Dmax) is 70 to 90%. This compound gave a pIC50 with LNCaP cells (Homo sapiens, LNCaP) of more than 7.00. The compound further showed a pIC50 in the experiment on VCaP cells (Homo sapiens, VCaP) of more than 7.00.
On AR, `C[C@H]1CC2(CCN(c3ccc(N4CCN(C5CCN(c6ccc7c(c6)C(=O)N(C6CCC(=O)NC6=O)C7=O)CC5)CC4)cc3)CC2)CN1c1ccc(C#N)c(Cl)c1` (some centres unmarked) [compound 29] gave a half-maximal degradation concentration (DC50) of less than 100 nM and a maximal degradation (Dmax) of more than 90%. In the experiment with LNCaP cells (Homo sapiens, LNCaP), the pIC50 is more than 7.00. Further, the pIC50 in the experiment with VCaP cells (Homo sapiens, VCaP) is more than 7.00.
Turning to `C[C@H]1CC2(CCN(c3ccc(C4CCN(CC5CN(c6ccc7c(c6)C(=O)N(C6CCC(=O)NC6=O)C7=O)C5)CC4)cn3)CC2)CN1c1ccc(C#N)c(Cl)c1` (some centres unmarked) [compound 43], on AR, the half-maximal degradation concentration (DC50) is less than 1 nM and the greatest degradation seen (Dmax) is more than 90%. This compound also showed a pIC50 in the experiment with LNCaP cells (Homo sapiens, LNCaP) of more than 8.00. Besides, the negative-log IC50 (pIC50) with VCaP cells (Homo sapiens, VCaP) was more than 8.00.
At AR, `C[C@H]1CC2(CCN(c3ccc(CN4CCN(C5CCN(c6ccc7c(c6)C(=O)N(C6CCC(=O)NC6=O)C7=O)CC5)CC4)c(F)c3)CC2)CN1c1ccc(C#N)c(Cl)c1` (some centres unmarked) [compound 10] gave a DC50 of less than 10 nM and a Dmax of more than 90%. The compound further gave a negative-log IC50 (pIC50) in the experiment with LNCaP cells of more than 8.00. For the same compound, the pIC50 in the experiment on VCaP cells was more than 8.00.
On AR, `C[C@H]1CC2(CCN(c3ccc(N4CCC(N(C)C5CN(c6ccc7c(c6)C(=O)N(C6CCC(=O)NC6=O)C7=O)C5)CC4)cn3)CC2)CN1c1ccc(C#N)c(Cl)c1` (some centres unmarked) [compound 123] came in with a 50% degradation concentration (DC50) of less than 1 nM and a maximal degradation (Dmax) of more than 90%. In addition, the pIC50 with LNCaP cells (Homo sapiens, LNCaP) is more than 8.00. The pIC50 in the experiment on VCaP cells (Homo sapiens, VCaP) is more than 8.00.
Take `C[C@H]1CC2(CCN(c3ccc(N4CCC(N(C)C5CN(c6ccc7c(c6)C(=O)N(C6CCC(=O)NC6=O)C7=O)C5)CC4)nc3)CC2)CN1c1ccc(C#N)c(Cl)c1` (some centres unmarked) [compound 124]: at AR, the DC50 is less than 10 nM and the Dmax lay within 70 to 90%. In the experiment with LNCaP cells (Homo sapiens, LNCaP), this compound showed a pIC50 of more than 7.00. In the experiment on VCaP cells (Homo sapiens, VCaP), this compound had a negative-log IC50 (pIC50) of more than 7.00.
